Structures are written as SMILES. A value given as a limit tells only on which side of the number the result lay.

One may read the melting point as the temperature, or range, at which the solid turns liquid. The compound `COc1cccc(CNC(CCCCCC(=O)O)C(C)C)c1` (configuration not stated) showed a melting point of 64 to 67 °C.
`COC(=O)c1coc(-c2ncn3c2CN(C)C(=O)c2ccccc2-3)n1` gave a melting point of 264 to 265 °C.
Compound `O=C(O)c1ccc(OCCNC(=O)c2ccc(Cl)cc2)cc1` returned a melting point of 219 to 220 °C.
With `CCCCCCC(O)CNCCO` (configuration not stated), the melting point stood at 45 °C.
Compound `COc1c(C)cnc(CSc2nc(C)cc(=O)[nH]2)c1C` displayed a melting point of 231 to 233 °C.
For the compound `CC(C)(C)c1cc(C(=O)Nc2cccc(OCc3cncc(Br)c3)c2)ccc1O`, the melting point lay in the range of 105 to 111 °C.
As for `COC(=O)c1ccc(-c2noc(C(F)(F)F)n2)s1`, the melting point fell in the range of 126 to 127 °C.
Compound `CCCCc1c(Cl)nc(NC=O)nc1Cl` registered a melting point of 82 to 83 °C.
Consider `COC(=O)Nc1c(Cl)ccc(C)c1F`, for which the melting point was in the range of 109 to 112 °C.
For `CC(=O)SC(CC(=O)c1ccc(Oc2ccc(Cl)cc2)cc1)C(=O)O` (configuration not stated), the melting point lay within 91 to 94 °C.
In turn, `CC(C)(C)OC(=O)NCc1cc([N+](=O)[O-])ccc1Cl` gave a melting point of 77 °C.
The compound `CCOC(=O)C(O)c1cc(Cl)cc2cccnc12` (configuration not stated) yielded a melting point of 121 to 124 °C.
With `COc1cc(-c2cnc3[nH]cc(C(=O)C(C)(CO)CO)c3n2)cc(OC)c1OC`, the melting point is 222 to 223 °C.
`CCOC(=O)/C=C/c1ccc(OC)c(F)c1` had a melting point of 39 to 41 °C.
The same measure for `CCC(CC)n1c(=O)ccc2cnc(Nc3ccc(N4CCN(C)CC4)cc3)nc21`: 155 to 157 °C; for `Cc1cccc(-c2nc3c(C)cccn3c2-c2ccnc(-c3ccc(OCC(N)=O)cc3)c2)n1`: 183 °C.
As to `CN1CC(=O)N(c2cc(Cc3n[nH]c(=O)c4ccccc34)ccc2F)C(=O)C1`, the melting point was in the range of 205 to 208 °C.
The same measure for `O=C(O)c1cc(F)c(N2CCCC2)nc1NC1CC1`: 64 to 66 °C; for `COC(=O)c1c2cc(I)ccc2nc2ccc(I)cc12`: 201 to 203 °C.
Compound `CC(=O)CCCN1CCC(NC(=O)c2cc(Cl)c(N)c3c2OC(C)(C)C3)CC1` had a melting point of 119 °C.
`CCSC=C1SC(=O)N(CCCCSc2cccc3nccn23)C1=O` displayed a melting point of 159 to 160 °C.
Take `C(=C\c1cc(/C=C/c2ccccc2OCc2ccccn2)[nH]n1)/c1ccc2cc[nH]c2c1`: the melting point lay within 113 to 120 °C.
As to `CC(C)(C)OC(=O)NC1COCCCC=CC2CC2(C(=O)NS(=O)(=O)C2CC2)NC(=O)C2CC(OC(=O)c3ccccc3)CN2C1=O` (configuration not stated), the melting point lay in the range of 135 to 137 °C.
The same measure for `O=C(COc1ccc(Cl)cc1)c1ccc(Br)s1`: 128 to 130 °C; for `COc1ccc2oc(C(=O)c3cccnc3F)cc2c1`: 130 to 134 °C.
The figure for `Cc1ccc(COc2ncc(F)c(NC(=O)c3ccccc3)n2)cc1` is 93 to 95 °C; for `Nc1ncnc2c1ncn2Cc1nc2ccc(Br)cc2c(=O)n1-c1ccccc1Cl` it is 284 to 285 °C; for `Nc1nc2ccccc2c2c1ncn2CCCCNC(=O)Oc1ccc2ccccc2c1` it is 154 to 155 °C.
Regarding `CS(=O)(=O)Nc1cccc(Nc2nc(N3CCC[C@H]3CO)c3nc[nH]c3n2)c1`, the melting point is 192 to 197 °C.
Take `CCOC(=O)C(=Cc1ccccn1)C(=O)C(C)C`: the melting point lay within 53 to 55 °C.
Regarding `COC=C(C#N)CNC=O`, the melting point is 84 to 86 °C.
`CN(C)C(=O)ON=C1COCS1` came in with a melting point of 87.5 to 88 °C.
The figure for `O=C(CCCN1CCc2ccccc2C1)c1ccc(F)cc1` is 69 to 71 °C; for `CC1(C)NC(=O)CN1C(=O)CBr` it is 137 to 138 °C.
`CC(=O)OC1CSC(Oc2cccc(-c3ccsc3)c2)C(OC(C)=O)C1OC(C)=O` (configuration not stated) returned a melting point of 111 °C.
In the case of `CCN(CC)CCNC(=O)c1cc(Cl)c(N)cc1OC1OCCO1`, the melting point lay in the range of 93 to 95 °C.
Regarding `OC1CCSC(=S)N1c1ccc(Cl)cn1` (configuration not stated), the melting point lay within 136 to 137 °C.
As to `CC(CCCC(C(=O)O)C(=O)O)C1CC=C2C3=C(CCC21C)C1(C)CCC(O)C(C)(C)C1CC3` (configuration not stated), the melting point lay in the range of 188 to 190 °C.
The figure for `CCCn1c(=O)c2[nH]c(-c3ccc(C=C(C(=O)OCC)C(=O)OCC)o3)nc2n(CCC)c1=O` is 220 to 222 °C; for `COc1ccc(-c2cc3cc(F)c(F)cc3[nH]2)cc1NCc1ccc(C#N)cc1` it is 158 to 159 °C.
Take `O=Cc1ccc(Sc2nc3c(F)c(F)c(F)cc3[nH]2)o1`: the melting point was 152 °C.
Take `CC(=O)N1CCC(c2ccc3c(c2OCc2ccccc2)CCCC3)CC1`: the melting point lay in the range of 108 to 110 °C.
The compound `COc1ccc(C(=O)c2cccc3[nH]ccc23)cc1` displayed a melting point of 148 to 152 °C.
With `CN(C)c1ccc(C=CC(C=C(c2ccc(N(C)C)cc2)c2ccc(N(C)C)cc2)C=C(c2ccc(N(C)C)cc2)c2ccc(N(C)C)cc2)cc1`, the melting point was 78 to 82 °C.
As for `CCCCc1c(/C=C/C(=O)Oc2ccc([N+](=O)[O-])cc2)cc(OC)c2ccccc12`, the melting point stood at 122 °C.
With `CC1(Cc2ccc(OCc3ccccc3)cc2)OCCO1`, the melting point fell in the range of 58 to 62 °C.
Compound `CNC(=O)c1c(NC(=O)c2cc(C(F)(F)F)nn2-c2ncccc2Cl)c(Br)cc2cn[nH]c12` returned a melting point above 255 °C.
In turn, `COc1ccc(C(=O)Nc2c(Cl)cncc2Cl)cc1OC1COCC1O` (configuration not stated) returned a melting point of 183 to 185 °C.
`CCCOc1ccc2c(c1)NC(=O)CO2` showed a melting point of 102 to 104 °C.
`COc1ccc(-c2ccc3c(c2)CCCc2c-3nc3ccc(F)cc3c2C(=O)O)cc1` displayed a melting point above 300 °C.
The compound `O=C(CCCl)Nc1ccc2[nH]c3ccc(NC(=O)CCCl)cc3c(=O)c2c1` displayed a melting point above 350 °C.
Consider `N#CCC(O)(c1ccccc1)c1ccccc1`, for which the melting point lay in the range of 136 to 138 °C.
The figure for `N#CC1(c2ccc(OC(F)F)c(OC3CCCC3)c2)CCC(=O)CC1` is 76 to 78 °C; for `O=C(O)c1ccnc2[nH]ccc12` it is above 300 °C.
In turn, `Cc1nc2cccc(N)c2nc1C` came in with a melting point of 162 to 163 °C.
`CC[C@@H](C)NC1=NS(=O)(=O)c2sc(Cl)cc2N1` registered a melting point of 215 to 220 °C.
As to `O=C(Nc1c[nH]nc1C(=O)NCC(F)(F)F)c1ccccn1`, the melting point was in the range of 235 to 236 °C.
Take `CNC(=O)c1nnn(Cc2ccccc2)c1N`: the melting point was 151 to 153 °C.
The compound `CCCCCCCCCCCCc1cc(CC(=O)Nc2c(OC)cc(OC)cc2OC)on1` came in with a melting point of 107 to 109 °C.
`Cc1ccccc1C(=O)COc1c(C(=O)c2ccc(Cl)c(C)c2Cl)c(C)nn1C` gave a melting point of 154 °C.
Compound `CC(=O)Nc1cc([N+](=O)[O-])ccc1CBr` returned a melting point of 188 to 189 °C.
With `COC(=O)[C@H]1[C@H](N2C(=O)c3ccccc3C2=O)C(=O)N1Cc1ccc(OC)cc1OC` (relative stereo), the melting point is 186 to 188 °C.
The compound `COc1cc(C=CC(=O)OC2C(O)C3CC(OC(=O)c4cc(OC)c(OC)c(OC)c4)CC2[N+]3(C)[O-])cc(OC)c1OC` (configuration not stated) returned a melting point of 118 to 121 °C.
The figure for `O=C(O)c1ccc2c(c1)CCc1ccc(C(=O)O)cc1S2(=O)=O` is 350 to 352 °C.
Turning to `Cc1c(C(=O)OCc2ccc(Cl)cc2)oc2cccc(O)c12`, the melting point was in the range of 202 to 204 °C.
Compound `Cc1cc2c(O)cccc2[nH]1` displayed a melting point of 168 to 170 °C.
For the compound `Cc1cc(OCCCCCCCCNC(=O)c2cc(-c3cccc(Cl)c3)c(OCC(=O)O)c(-c3cccc(Cl)c3)c2)ccc1F`, the melting point is 138 to 140 °C.
Regarding `CCCCCCCCCCCCS(=O)c1c(O)cc(C)oc1=O` (configuration not stated), the melting point was determined as 80 °C.
Take `CCOC(=O)C1=C(C)N2CCNC2=C(C(=O)OCC)C1C` (configuration not stated): the melting point worked out at 138 °C.
Compound `CCOC(=O)CN1C(=O)N(c2ccc(C#N)c(C(F)(F)F)c2)C(=O)C1(C)C` came in with a melting point of 152 °C.
In turn, `CC(C)c1cc2c(cc1Oc1ccc(C(=O)O)cc1)C(C)(C)CCC2(C)C` returned a melting point of 205 to 206 °C.
As to `O=C(Cc1ccccc1I)Nc1ccccc1I`, the melting point lay in the range of 160 to 163 °C.
The compound `O=C1C=CC(=O)N1c1ccc([N+](=O)[O-])cc1` yielded a melting point of 163 to 165 °C.
The compound `C[Si](C)(C)C#Cc1ccc(O)cc1` registered a melting point of 60 to 63.5 °C.
In turn, `COc1cc2c(c(Cl)c1Cl)CCC2=O` had a melting point of 163 to 165 °C.
The same measure for `OCc1cn(-c2ccc3ccccc3n2)cn1`: 136 to 137 °C; for `Cc1nc2cc(F)ccc2c(=O)o1`: 159 to 160 °C.
`CCCc1c(C(=O)C(C)C)c2ccc(C(=O)O)cc2n1Cc1ccccc1[N+](=O)[O-]` displayed a melting point of 214 to 215 °C.
Consider `CCOC(=O)c1ncc2ccccc2n1`, for which the melting point was in the range of 71 to 74 °C.
Compound `CN1CCN(CCc2ccc(Nc3ncc4c(n3)-c3ccccc3C(c3cccc(Br)c3)C4)cc2)CC1` (configuration not stated) came in with a melting point of 100 to 102 °C.
`C1CCN(CCN2CCNCC2)CC1` showed a melting point of 60 to 62 °C.
The figure for `O=C(O)c1cccc(OCc2c(Cl)cccc2Cl)c1` is 187 to 189 °C; for `Cc1ccn(-c2ccc(C(=O)c3cccc4c3Nc3ncccc3C(C)N4)c(C(F)(F)F)c2)n1` (configuration not stated) it is 188 to 190 °C.
Turning to `OCC1OC(n2cc(Cc3ccc(C4CC4)cc3)c3c(F)cccc32)C(O)C(O)C1O` (configuration not stated), the melting point fell in the range of 110 to 112 °C.
For the compound `CCOCCc1c(-c2ccccc2)nc(Br)n2ncnc12`, the melting point lay in the range of 159 to 160 °C.
The compound `CS(=O)(=O)Nc1ccc(C(=O)CCC(=O)O)cc1` registered a melting point of 198 to 200 °C.
Regarding `CC(C)c1cccc(C(C)C)c1NC(=O)C(Cc1ccccc1)NC(=O)NC(C)(C)C` (configuration not stated), the melting point fell in the range of 241 to 242 °C.
On to `COc1ccc2c(c1)CN(S(=O)(=O)NC(Cc1cc3c(N)nccc3s1)C(=O)N1CCC(C)CC1)CC2` (configuration not stated), for which the melting point lay in the range of 175 to 176 °C.
`CNCc1nc(CSCCNC(=C[N+](=O)[O-])NC)cs1`: the melting point was 105 to 107 °C.
For the compound `CCCC[C@H](F)C(=O)N[C@@H](C)c1ccc([N+](=O)[O-])cc1`, the melting point lay in the range of 84.5 to 86.5 °C.
The same measure for `Nc1ccc2c3c(cccc13)C(=O)N(CCCCBr)C2=O`: 175 to 176 °C.
The compound `O=C(Nc1ccc(Cl)c(Cl)c1)NS(=O)(=O)c1ccc2c(c1)CCC2` displayed a melting point of 156 to 158 °C.
